Results: patent US11370794B2, “Toll-like receptor antagonist compounds and methods of use” (Dynavax Technologies Corporation, priority 2016, dated 2022)
Read-outs that look alike come from different tables or passages of the source.

How the values were obtained:
[1] = molecular target: T1, human TLR9 (Homo sapiens, UniProt Q9NR96); experiment: Inhibition of human TLR9 in human B cells (IL-6 ELISA); type: cell-based; conditions: for IC50: human B cells, agonist 1018 ISS 1 μM; for inhibits TLR9-dependent responses (in words): summary statement of the description
T1 construct: endogenous in cells; host or cells: primary human B cells (CD19 microbeads) from buffy coats of healthy donors
T1 sequence (Q9NR96 26-1032): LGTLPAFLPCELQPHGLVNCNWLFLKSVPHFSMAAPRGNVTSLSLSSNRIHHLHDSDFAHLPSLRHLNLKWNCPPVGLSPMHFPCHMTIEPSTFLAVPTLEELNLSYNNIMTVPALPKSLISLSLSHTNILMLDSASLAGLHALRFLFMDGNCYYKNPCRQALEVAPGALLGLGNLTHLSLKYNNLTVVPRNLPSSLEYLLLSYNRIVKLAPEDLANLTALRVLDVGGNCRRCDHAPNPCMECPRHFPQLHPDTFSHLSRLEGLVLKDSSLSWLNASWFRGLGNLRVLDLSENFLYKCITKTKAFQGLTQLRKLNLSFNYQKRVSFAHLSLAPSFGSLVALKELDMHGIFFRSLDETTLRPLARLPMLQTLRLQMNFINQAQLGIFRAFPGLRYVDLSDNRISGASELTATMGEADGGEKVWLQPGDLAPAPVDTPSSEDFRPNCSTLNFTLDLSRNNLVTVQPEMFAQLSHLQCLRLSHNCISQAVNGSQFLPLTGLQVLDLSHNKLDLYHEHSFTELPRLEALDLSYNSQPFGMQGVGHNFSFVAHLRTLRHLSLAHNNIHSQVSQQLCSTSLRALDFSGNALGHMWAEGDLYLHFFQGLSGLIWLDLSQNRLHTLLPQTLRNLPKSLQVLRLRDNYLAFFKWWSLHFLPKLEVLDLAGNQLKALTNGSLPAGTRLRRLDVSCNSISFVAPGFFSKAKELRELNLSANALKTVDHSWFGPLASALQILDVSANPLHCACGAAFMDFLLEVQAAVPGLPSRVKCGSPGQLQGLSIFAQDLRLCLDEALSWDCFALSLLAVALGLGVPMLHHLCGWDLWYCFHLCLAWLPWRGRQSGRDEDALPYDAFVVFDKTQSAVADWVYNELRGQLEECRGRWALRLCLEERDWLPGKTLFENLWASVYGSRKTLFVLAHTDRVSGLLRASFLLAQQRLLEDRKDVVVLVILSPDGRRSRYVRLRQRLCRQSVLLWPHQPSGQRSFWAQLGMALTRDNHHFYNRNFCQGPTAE
Procedure, shortened: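 Primary human B cells (CD19-isolated from donor buffy coats), ~300,000 per well, treated with compound (about 0.01–10 μM, some 0.001–30 μM) then 1 μM CpG oligonucleotide 1018 ISS. After 48 hours at 37° C, supernatant IL-6 measured by ELISA; IC50 from concentration-response of TLR9-dependent activity.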

[2] = molecular target: T2, human TLR8 (Homo sapiens, UniProt Q9NR97); experiment: Inhibition of human TLR8 in human monocytes (TNF-alpha / IL-1 beta ELISA); type: cell-based; conditions: human monocytes, agonist ORN8L 100 μg/mL, 24 hours
T2 construct: endogenous in cells; host or cells: primary human monocytes (CD14 microbeads) from buffy coats of healthy donors
T2 sequence (Q9NR97 27-1041): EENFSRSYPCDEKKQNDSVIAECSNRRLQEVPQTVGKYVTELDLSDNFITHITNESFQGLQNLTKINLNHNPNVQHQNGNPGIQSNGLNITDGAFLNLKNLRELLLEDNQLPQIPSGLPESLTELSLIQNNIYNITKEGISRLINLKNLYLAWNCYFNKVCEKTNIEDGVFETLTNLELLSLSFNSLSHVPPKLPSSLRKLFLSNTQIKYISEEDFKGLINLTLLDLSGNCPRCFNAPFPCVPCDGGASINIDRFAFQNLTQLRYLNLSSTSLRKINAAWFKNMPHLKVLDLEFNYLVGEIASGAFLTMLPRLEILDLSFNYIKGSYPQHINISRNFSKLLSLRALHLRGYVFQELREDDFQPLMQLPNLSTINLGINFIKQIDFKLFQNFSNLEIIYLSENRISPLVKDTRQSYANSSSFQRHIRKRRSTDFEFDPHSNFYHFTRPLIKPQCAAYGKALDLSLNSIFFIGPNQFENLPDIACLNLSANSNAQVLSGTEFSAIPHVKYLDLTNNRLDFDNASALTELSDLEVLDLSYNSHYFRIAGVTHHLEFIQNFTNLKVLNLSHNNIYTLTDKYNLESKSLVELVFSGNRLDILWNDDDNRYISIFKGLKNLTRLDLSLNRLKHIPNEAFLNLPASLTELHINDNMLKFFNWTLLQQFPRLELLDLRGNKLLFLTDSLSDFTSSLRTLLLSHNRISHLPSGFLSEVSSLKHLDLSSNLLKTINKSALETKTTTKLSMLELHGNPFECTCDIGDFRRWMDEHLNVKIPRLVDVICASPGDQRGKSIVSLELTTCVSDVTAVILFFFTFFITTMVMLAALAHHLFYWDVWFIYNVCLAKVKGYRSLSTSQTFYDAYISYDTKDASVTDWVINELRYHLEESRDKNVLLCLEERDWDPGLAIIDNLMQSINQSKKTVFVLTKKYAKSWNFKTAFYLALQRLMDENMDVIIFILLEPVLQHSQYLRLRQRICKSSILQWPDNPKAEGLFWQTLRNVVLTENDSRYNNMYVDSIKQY
Procedure, shortened: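 Primary human monocytes from donor buffy coats (~200,000 cells/well) given serially diluted compound, then ORN8L RNA oligonucleotide agonist at 100 μg/mL final. After 24 h at 37 °C, supernatant TNF-alpha and/or IL-1 beta measured by ELISA; IC50 from the concentration-response of cytokine release.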

[3] = IL-6 readout, 48 hours, range about 0.01 to 10 μM, read-out: Human TLR9 IC50
[4] = TNF-alpha readout, read-out: Human TLR8 IC50 TNF-a
[5] = IL-6, 48 hours, expanded dilution series about 0.001 to 30 μM, read-out: Human TLR9 IC50, expanded dilution series

SMILES | IC50 [1, 3] | IC50 [2, 4] | IC50 ([2]; IL-1 beta readout, read-out: Human TLR8 IC50 IL-1b) | IC50 [1, 5] | inhibits TLR9-dependent responses (in words) [1]
Cc1nnc(N2CCC(C(=O)NCCCN(C)C)CC2)c2nn(-c3cccnc3)c(C)c12 [compound 23, 1-(3,4-dimethyl-2-(pyridin-3-yl)-2H-pyrazolo[3,4-d]pyridazin-7-yl)-N-(3-(dimethylamino)propyl)piperidine-4-carboxamide] | > 10000 nM | ≥ 20000 nM | – | – | –
Cc1nnc(N2CCC(C(=O)NCCCN(C)C)CC2)c2nn(-c3ccsc3)c(C)c12 [compound 24, 1-(3,4-dimethyl-2-(thiophen-3-yl)-2H-pyrazolo[3,4-d]pyridazin-7-yl)-N-(3-(dimethylamino)propyl)piperidine-4-carboxamide] | 400 nM | ≥ 20000 nM | – | – | –
Cc1nnc(N2CCC(C(=O)NCCCN(C)C)CC2)c2nn(C3CCOCC3)c(C)c12 [compound 25, 1-(3,4-dimethyl-2-(tetrahydro-2H-pyran-4-yl)-2H-pyrazolo[3,4-d]pyridazin-7-yl)-N-(3-(dimethylamino)propyl)piperidine-4-carboxamide] | > 10000 nM | ≥ 20000 nM | – | – | –
Cc1nnc(N2CCC(C(=O)NCCCN(C)C)CC2)c2nn(C(C)C)c(C)c12 [compound 27, N-(3-(dimethylamino)propyl)-1-(2-isopropyl-3,4-dimethyl-2H-pyrazolo[3,4-d]pyridazin-7-yl)piperidine-4-carboxamide] | > 10000 nM | ≥ 20000 nM | – | – | –
Cc1ccc(-n2nc3c(N4CCC(C(=O)NCCCCN(C)C)CC4)nnc(C)c3c2C)cc1 [compound 31, 1-(3,4-dimethyl-2-(p-tolyl)-2H-pyrazolo[3,4-d]pyridazin-7-yl)-N-(4-(dimethylamino)butyl)piperidine-4-carboxamide] | 86 nM | 2680 nM | – | – | –
Cc1ccc(-n2nc3c(N4CCC(C(=O)NCCCCCN(C)C)CC4)nnc(C)c3c2C)cc1 [compound 32, 1-(3,4-dimethyl-2-(p-tolyl)-2H-pyrazolo[3,4-d]pyridazin-7-yl)-N-(5-(dimethylamino)pentyl)piperidine-4-carboxamide] | 55 nM | > 10000 nM | > 10000 nM | – | –
Cc1ccc(-n2nc3c(N4CCC(C(=O)NCCCN(C)C)CC4)nnc(C)c3c2-c2ccccc2)cc1 [compound 34, N-(3-(dimethylamino)propyl)-1-(4-methyl-3-phenyl-2-(p-tolyl)-2H-pyrazolo[3,4-d]pyridazin-7-yl)piperidine-4-carboxamide] | 251 nM | ≥ 20000 nM | – | – | –
Cc1ccc(-n2nc3c(N4CCC(C(=O)NCCCN(C)C)CC4)nnc(-c4ccccc4)c3c2C)cc1 [compound 35, N-(3-(dimethylamino)propyl)-1-(3-methyl-4-phenyl-2-(p-tolyl)-2H-pyrazolo[3,4-d]pyridazin-7-yl)piperidine-4-carboxamide] | 3710 nM | ≥ 20000 nM | – | – | –
Cc1ccc(-n2nc3c(N4CCC(C(=O)NCCCN(C)C)CC4)nnc(Cl)c3c2C)cc1 [compound 36, 1-(4-chloro-3-methyl-2-(p-tolyl)-2H-pyrazolo[3,4-d]pyridazin-7-yl)-N-(3-(dimethylamino)propyl)piperidine-4-carboxamide] | 1150 nM | 7680 nM | – | – | –
Cc1ccc(-n2nc3c(N4CCC(C(=O)NCCCCCCN(C)C)CC4)nnc(C)c3c2C)cc1 [compound 38, 1-(3,4-dimethyl-2-(p-tolyl)-2H-pyrazolo[3,4-d]pyridazin-7-yl)-N-(6-(dimethylamino)hexyl)piperidine-4-carboxamide] | 40 nM | ≥ 20000 nM | – | – | –
CCN1CCN(C(=O)C2CCN(c3nncc4cn(-c5ccc(C)cc5)nc34)CC2)CC1 [compound 40, (4-ethylpiperazin-1-yl)(1-(2-(p-tolyl)-2H-pyrazolo[3,4-d]pyridazin-7-yl)piperidin-4-yl)methanone] | 26 nM | 226 nM | – | – | –
Cc1ccc(-n2nc3c(N4CCC(C(=O)NCCCN(C)C)CC4)nnc(I)c3c2C)cc1 [compound 41, N-(3-(dimethylamino)propyl)-1-(4-iodo-3-methyl-2-(p-tolyl)-2H-pyrazolo[3,4-d]pyridazin-7-yl)piperidine-4-carboxamide] | 793 nM | ≥ 20000 nM | – | – | –
Cc1ccc(-n2nc3c(N4CCC(C(=O)NCCCN(C)C)CC4)nncc3c2C)cc1 [compound 42, N-(3-(dimethylamino)propyl)-1-(3-methyl-2-(p-tolyl)-2H-pyrazolo[3,4-d]pyridazin-7-yl)piperidine-4-carboxamide] | 133 nM | ≥ 20000 nM | – | – | –
CCN(CC)C1CCN(C(=O)C2CCN(c3nnc(C)c4c(C)n(-c5ccc(C)cc5)nc34)CC2)CC1 [compound 43, (4-(diethylamino)piperidin-1-yl)(1-(3,4-dimethyl-2-(p-tolyl)-2H-pyrazolo[3,4-d]pyridazin-7-yl)piperidin-4-yl)methanone] | 1 nM | ≥ 20000 nM | – | 13 nM | inhibit
Cc1ccc(-n2nc3c(N4CCC(C(=O)N5CCC(N(C)C)C5)CC4)nnc(C)c3c2C)cc1 (stereo not shown) [compound 44, (1-(3,4-dimethyl-2-(p-tolyl)-2H-pyrazolo[3,4-d]pyridazin-7-yl)piperidin-4-yl)(3-(dimethylamino)pyrrolidin-1-yl)methanone] | 202 nM | ≥ 20000 nM | – | – | –
Cc1ccc(-n2nc3c(N4CCC(C(=O)N5CCC(CN(C)C)C5)CC4)nnc(C)c3c2C)cc1 (stereo not shown) [compound 45, (1-(3,4-dimethyl-2-(p-tolyl)-2H-pyrazolo[3,4-d]pyridazin-7-yl)piperidin-4-yl)(3-((dimethylamino)methyl)pyrrolidin-1-yl)methanone] | 1 nM | ≥ 20000 nM | – | 14 nM | inhibit
Cc1ccc(-n2cc3cnnc(N4CCC(C(=O)NCCN(C)C)CC4)c3n2)cc1 [compound 46, N-(2-(dimethylamino)ethyl)-1-(2-(p-tolyl)-2H-pyrazolo[3,4-d]pyridazin-7-yl)piperidine-4-carboxamide] | 2 nM | ≥ 20000 nM | – | 10 nM | inhibit
Cc1ccc(-n2cc3cnnc(N4CCCC(C(=O)NCCN(C)C)C4)c3n2)cc1 (stereo not shown) [compound 47, N-(2-(dimethylamino)ethyl)-1-(2-(p-tolyl)-2H-pyrazolo[3,4-d]pyridazin-7-yl)piperidine-3-carboxamide] | 27 nM | 2620 nM | – | – | –
